# Counter-ions that a name gives are not always drawn.
# How the values were obtained:
# Eimeria tenella [1] = test: feeding experiment in young chickens challenged with Eimeria tenella; assay type: in vivo; conditions: 100 ppm in the diet, chicks challenged with Eimeria tenella, Na salt
# Excerpt: A feeding experiment in young chickens confirms that the deoxynarasin antibiotics have anticoccidial activity in vivo.
# stability in alcohols = assay type: physicochemical; conditions: converts to 20-deoxy-epi-17-narasin free acid (methanol, room temperature, four hours)
# Protocol: (§1) For example, 20-deoxynarasin acid (435.1 mg) was dissolved in methanol (40 ml) and allowed to stand at room temperature for four hours. The solution was then evaporated to dryness under vacuum; the residue was redissolved in dioxane and lyophilized to give 417.8 mg of 20-deoxy-epi-17-narasin acid.
# rumen flora = test: in vitro rumen volatile-fatty-acid (VFA) test; set-up: species or system ruminants
# Excerpt: As discussed, efficiency of carbohydrate utilization in ruminants is increased by treatments which stimulate the animal's rumen flora to produce propionate compounds rather than acetate or butyrate compounds. The efficiency of feed use can be monitored by observing the production and concentration of propionate compounds in rumen fluid, using methods as described in U.S. Pat. No. 4,038,384.
# Results of in vitro tests with 20-deoxynarasin (Na salt) and 20-deoxy-epi-17-narasin (free acid), showing the ratio of volatile-fatty-acid (VFA) concentrations in treated flasks to concentrations in control flasks, are shown in Table VIII.
# solubility = assay type: physicochemical; conditions: for solubility in nonpolar organic solvents: nonpolar organic solvents such as hexane; for solubility in organic solvents: organic solvents (methanol, ethanol, dimethylformamide, dimethyl sulfoxide, ethyl acetate, chloroform, acetone, benzene)
# Excerpt: The deoxynarasin antibiotic complex comprises 20-deoxynarasin and 20-deoxy-epi-17-narasin which are obtained from the fermentation as a mixture. 20-Deoxynarasin and 20-deoxy-epi-17-narasin are separated from the deoxynarasin complex and isolated as individual compounds as hereinafter described. The deoxynarasin complex also contains minor factors which are removed by the procedures described. The deoxynarasin antibiotic complex is soluble in most organic solvents, but is insoluble in water.
# as §1
# herpesvirus = test: in vitro plaque suppression test; assay type: cell-based
# Excerpt: (§2) The deoxynarasin antibiotics are also antiviral agents.
# rhinovirus type 3 = test: in vitro plaque suppression test; assay type: cell-based; conditions: rhinovirus type 3, in vitro
# Excerpt: as §2
# vacinnia virus = test: in vitro plaque suppression test; assay type: cell-based
# Excerpt: as §2
# influenza A virus = test: in vitro plaque suppression test; assay type: cell-based
# Excerpt: as §2
# M. gallisepticum = test: in vitro broth-dilution MIC, Mycoplasma; assay type: cell-based; conditions: Mycoplasmoides gallisepticum
# Excerpt: (§3) Activity against Mycoplasma is another useful aspect of the antimicrobial activity of the deoxynarasin antibiotics. Mycoplasma species, also known as pleuropneumonia-like (PPLO) organisms, are pathogenic to man and various animals. Agents active against PPLO organisms are especially needed by the poultry industry. The minimal inhibitory concentrations (MIC) of 20-deoxy-epi-17-narasin (free acid) against illustrative Mycoplasma species, as determined by in vitro broth-dilution studies, are summarized in Table VI.
# M. synoviae = test: in vitro broth-dilution MIC, Mycoplasma; assay type: cell-based; conditions: Mycoplasmopsis synoviae
# Excerpt: as §3
# M. hyorhinis = test: in vitro broth-dilution MIC, Mycoplasma; assay type: cell-based; conditions: Mesomycoplasma hyorhinis
# Excerpt: as §3
# [2] = system: Peptostreptococcus intermedius 1264; test: agar-dilution MIC, anaerobic bacteria; assay type: cell-based; conditions: 24-hour incubation
# Protocol: (§4) In one aspect, the deoxynarasin antibiotics inhibit the growth of anaerobic bacteria. The minimal inhibitory concentrations (MIC) at which 20-deoxy-epi-17-narasin (free acid) inhibits various anaerobic bacteria, determined by standard agar-dilution assay, are summarized in Table V. End points were read after 24-hour incubation period.
# Peptococcus prevoti 1281 = test: agar-dilution MIC, anaerobic bacteria; assay type: cell-based; conditions: 24-hour incubation
# Protocol: as §4
# [3] = system: Peptococcus asaccharolyticus 1302; test: agar-dilution MIC, anaerobic bacteria; assay type: cell-based; conditions: Peptoniphilus asaccharolyticus, 24-hour incubation
# Protocol: as §4
# [4] = system: Actinomyces israelii W855; test: agar-dilution MIC, anaerobic bacteria; assay type: cell-based; conditions: 24-hour incubation
# Protocol: as §4
# [5] = system: Clostridium septicum 1128; test: agar-dilution MIC, anaerobic bacteria; assay type: cell-based; conditions: 24-hour incubation
# Protocol: as §4
# [6] = system: Propionibacterium acnes 79; test: agar-dilution MIC, anaerobic bacteria; assay type: cell-based; conditions: Cutibacterium acnes, 24-hour incubation
# Protocol: as §4
# [7] = system: Peptostreptococcus anaerobius 1428; test: agar-dilution MIC, anaerobic bacteria; assay type: cell-based; conditions: 24-hour incubation
# Protocol: as §4
# [8] = system: Eubacterium aerofaciens 1235; test: agar-dilution MIC, anaerobic bacteria; assay type: cell-based; conditions: Collinsella aerofaciens, 24-hour incubation
# Protocol: as §4
# Bacteroides fragilis 111 = test: agar-dilution MIC, anaerobic bacteria; assay type: cell-based; conditions: 24-hour incubation
# Protocol: as §4
# mice = test: acute toxicity, intraperitoneal, mice; assay type: in vivo; conditions: intraperitoneally to mice
# Eimeria tenella [9] = test: in vitro anticoccidial activity; assay type: cell-based
# Excerpt: Anticoccidial activity is an important property of the deoxynarasin antibiotics of this invention.
# [10] = system: Streptococcus sp. (Group D); test: disc-diffusion method, zone of inhibition; assay type: cell-based
# Excerpt: (§5) The deoxynarasin antibiotics of this invention are antibacterial agents. For example, the relative microbiological activity of 20-deoxy-epi-17-narasin (free acid) is described in Table IV. The conventional disc-diffusion method was used.
# Diplococcus pneumoniae = test: disc-diffusion method, zone of inhibition; assay type: cell-based; conditions: Streptococcus pneumoniae
# Excerpt: as §5
# [11] = system: Staphylococcus aureus 3130 (Methicillin Resistant); test: disc-diffusion method, zone of inhibition; assay type: cell-based
# Excerpt: as §5
# [12] = system: Streptococcus pyogenes (Group A); test: disc-diffusion method, zone of inhibition; assay type: cell-based
# Excerpt: as §5
# [13] = system: Staphylococcus aureus 3074 (Penicillin G Resistant); test: disc-diffusion method, zone of inhibition; assay type: cell-based
# Excerpt: as §5
# [14] = system: Staphlococcus aureus 3055; test: disc-diffusion method, zone of inhibition; assay type: cell-based
# Excerpt: as §5
# [15] = system: Clostridium perfringens 81; test: microbe, parasite or virus in culture; assay type: cell-based; conditions: Clostridium perfringens, 81, 24 h
# [16] = system: isolated guinea-pig atria; test: isolated guinea-pig atria contractility; assay type: cell-based; conditions: Cavia porcellus; 10^-5 molar; percentage of maximal contractile tension elicited by norepinephrine challenge; n=4; read-out: mean (± standard error) increase in contractile tension
# Excerpt: 20-Deoxynarasin and its salts are also potential cardiotonic agents. In tests using isolated guinea-pig atria, for example, 20-deoxynarasin increased cardiac contractility. Response to this test is expressed as a percentage of the maximal contractile tension that could be elicited by a challenge dose of norepinephrine (10^-4)M). 20-Deoxynarasin (Na salt), at a 10^-5 molar concentration, produced a mean (± standard error) increase in contractile tension of 43.8±1.4 (n=4) percent. For a more detailed description of this test, see U.S. Pat. No. 3,985,893.
# [17] = target: cation transport ATPase in liver mitochondria; test: in vitro ATPase inhibition; assay type: biochemical
# Excerpt: In yet another aspect, 20-deoxynarasin and its salts are active as an inhibitor of the enzyme ATPase. ATPase, an alkali-metal-sensitive enzyme found in cell membranes, is involved in the energy necessary for active transport. "Active transport" refers to the energy-requiring series of operations whereby intracellular and extracellular fluids maintain their compositions. Inhibitors of ATPase reduce the energy required for active transport. In vitro tests have shown that 20-deoxynarasin (Na salt) inhibits cation transport ATPase in liver mitochondria at a half effective concentration of 0.065 mcg/ml.
smiles,measurement,setting,value
"CCC(C(=O)O)C1OC(C(C)C(O)C(C)C(=O)C(CC)C2OC3(C=CCC4(CCC(C)(C5CCC(O)(CC)C(C)O5)O4)O3)C(C)CC2C)C(C)CC1C (stereo not drawn) [20-deoxynarasin, 20-Deoxynarasin]",% Mortality,Eimeria tenella [1],0%
same,Weight Gain,Eimeria tenella [1],185 g
same,Lesion Score,Eimeria tenella [1]; maximum possible score = 4.00,0.13
same,stability in alcohols,stability in alcohols,unstable
same,"Ratio of Treated to Control, Molar % acetate",rumen flora; dose 0.1 mcg/ml,0.9504
same,"Ratio of Treated to Control, Molar % butyrate",rumen flora; dose 0.1 mcg/ml,0.6870
same,"Ratio of Treated to Control, Molar % propionate",rumen flora; dose 0.1 mcg/ml,1.2148
same,"Ratio of Treated to Control, Total VFA",rumen flora; dose 0.1 mcg/ml,1.1892
same,"Ratio of Treated to Control, Molar % acetate",rumen flora; dose 0.3 mcg/ml,0.9084
same,"Ratio of Treated to Control, Molar % butyrate",rumen flora; dose 0.3 mcg/ml,0.4582
same,"Ratio of Treated to Control, Molar % propionate",rumen flora; dose 0.3 mcg/ml,1.3799
same,"Ratio of Treated to Control, Total VFA",rumen flora; dose 0.3 mcg/ml,1.1829
same,"Ratio of Treated to Control, Molar % acetate",rumen flora; dose 1 mcg/ml,0.8727
same,"Ratio of Treated to Control, Molar % butyrate",rumen flora; dose 1 mcg/ml,0.3942
same,"Ratio of Treated to Control, Molar % propionate",rumen flora; dose 1 mcg/ml,1.4597
same,"Ratio of Treated to Control, Total VFA",rumen flora; dose 1 mcg/ml,1.2096
same,solubility in nonpolar organic solvents,solubility,only slightly soluble
same,solubility in organic solvents,solubility,soluble
same,solubility in water,solubility,insoluble
CCC(C(=O)O)C1OC(C(C)C(O)C(C)C(=O)C(CC)C2OC3(C=CCC4(CCC(C)(C5CCC(O)(CC)C(C)O5)O4)O3)C(C)CC2C)C(C)CC1C (stereo not drawn) [20-deoxy-epi-17-narasin],antiviral activity (plaque suppression),herpesvirus,active
same,antiviral activity (plaque suppression),rhinovirus type 3,active
same,antiviral activity (plaque suppression),vacinnia virus,active
same,antiviral activity (plaque suppression),influenza A virus,active
same,MIC,M. gallisepticum,25 µg/mL
same,MIC,M. synoviae,50 µg/mL
same,MIC,M. hyorhinis,50 µg/mL
same,MIC,[2],4 µg/mL
same,MIC,Peptococcus prevoti 1281,4 µg/mL
same,MIC,[3],8 µg/mL
same,MIC,[4],8 µg/mL
same,MIC,[5],16 µg/mL
same,MIC,[6],2 µg/mL
same,MIC,[7],4 µg/mL
same,MIC,[8],16 µg/mL
same,MIC,Bacteroides fragilis 111,> 128 µg/mL
same,acute toxicity LD50,mice,201 mg/kg
same,"Ratio of Treated to Control, Molar % acetate",rumen flora; dose 2 mcg/ml,0.9581
same,"Ratio of Treated to Control, Molar % butyrate",rumen flora; dose 2 mcg/ml,0.9414
same,"Ratio of Treated to Control, Molar % propionate",rumen flora; dose 2 mcg/ml,1.0858
same,"Ratio of Treated to Control, Total VFA",rumen flora; dose 2 mcg/ml,1.0717
same,"Ratio of Treated to Control, Molar % acetate",rumen flora; dose 5 mcg/ml,0.9237
same,"Ratio of Treated to Control, Molar % butyrate",rumen flora; dose 5 mcg/ml,0.8201
same,"Ratio of Treated to Control, Molar % propionate",rumen flora; dose 5 mcg/ml,1.1836
same,"Ratio of Treated to Control, Total VFA",rumen flora; dose 5 mcg/ml,1.0487
same,"Ratio of Treated to Control, Molar % acetate",rumen flora; dose 10 mcg/ml,0.9093
same,"Ratio of Treated to Control, Molar % butyrate",rumen flora; dose 10 mcg/ml,0.6560
same,"Ratio of Treated to Control, Molar % propionate",rumen flora; dose 10 mcg/ml,1.2665
same,"Ratio of Treated to Control, Total VFA",rumen flora; dose 10 mcg/ml,1.0325
same,solubility in nonpolar organic solvents,solubility,only slightly soluble
same,solubility in organic solvents,solubility,soluble
same,solubility in water,solubility,insoluble
same,level at which active against Eimeria tenella (as low as),Eimeria tenella [9],0.2 ppm
same,zone of inhibition at 30 µg/disc,[10]; 30 mcg/disc,14.6 mm
same,zone of inhibition at 300 µg/disc,[10]; 300 mcg/disc,17 mm
same,zone of inhibition at 30 µg/disc,Diplococcus pneumoniae; 30 mcg/disc,13 mm
same,zone of inhibition at 300 µg/disc,Diplococcus pneumoniae; 300 mcg/disc,16 mm
same,zone of inhibition at 30 µg/disc,[11]; 30 mcg/disc,17.2 mm
same,zone of inhibition at 300 µg/disc,[11]; 300 mcg/disc,19 mm
same,zone of inhibition at 30 µg/disc,[12]; 30 mcg/disc,10 mm
same,zone of inhibition at 300 µg/disc,[12]; 300 mcg/disc,12 mm
same,zone of inhibition at 30 µg/disc,[13]; 30 mcg/disc,15.4 mm
same,zone of inhibition at 300 µg/disc,[13]; 300 mcg/disc,19.5 mm
same,zone of inhibition at 30 µg/disc,[14]; 30 mcg/disc,13.8 mm
same,zone of inhibition at 300 µg/disc,[14]; 300 mcg/disc,16.9 mm
same,MIC,[15],16 µg/mL
CCC(C(=O)O)C1OC(C(C)C(O)C(C)C(=O)C(CC)C2OC3(C=CCC4(CCC(C)(C5CCC(O)(CC)C(C)O5)O4)O3)C(C)CC2C)C(C)CC1C (stereo not drawn) [20-deoxynarasin (Na salt)],activation at 10 µM,[16],43.8 ± 1.4%
same,"half effective concentration, inhibition of cation transport ATPase",[17],0.065 µg/mL
same,acute toxicity LD50,mice,5 mg/kg
same,minimal effective concentration,"Eimeria tenella [9]; Eimeria tenella, read-out: level at which active against Eimeria tenella (as low as)",0.2 µg/mL

# Reference: US4174404A, “Deoxynarasin antibiotics” (Eli Lilly and Company, priority 1978, dated 1979)
